Tests used:
corn = assay: Test B pre/postemergence corn; type: in vivo, Zea mays
Procedure, shortened: (§1)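 Test chemicals in a non-phytotoxic solvent mixture with surfactant were sprayed preemergence onto planted seeds and postemergence onto plants 2 to 18 cm tall (1- to 4-leaf stage). After twelve to sixteen days in a greenhouse, injury was visually rated against untreated controls from 0 (no effect) to 10 (complete control).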

sugar beet = assay: Test B pre/postemergence sugar beet; type: in vivo, Beta vulgaris
Procedure, shortened: as §1

duck salad = assay: Test B flood test duck salad; type: in vivo, Heteranthera limosa
Procedure, shortened: (§2)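 Read-out is a visual response score from 0 (no effect) to 10 (complete control), assigned by comparison with untreated controls. Treatment was applied at the 2-leaf stage, and plants stayed in the greenhouse for twelve to sixteen days before scoring.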

wild oat = assay: Test B pre/postemergence wild oat; type: in vivo, Avena fatua
Procedure, shortened: as §1

rice = assay: Test B flood test rice; type: in vivo, Oryza sativa
Procedure, shortened: as §2

bedstraw = assay: Test B pre/postemergence bedstraw; type: in vivo, Galium aparine
Procedure, shortened: as §1

wheat = assay: Test B pre/postemergence wheat; type: in vivo, Triticum aestivum
Procedure, shortened: as §1

giant foxtail = assay: Test B pre/postemergence giant foxtail; type: in vivo, Setaria faberii
Procedure, shortened: as §1

crabgrass = assay: Test B pre/postemergence crabgrass; type: in vivo, Digitaria sanguinalis
Procedure, shortened: as §1

velvetleaf = assay: Test B pre/postemergence velvetleaf; type: in vivo, Abutilon theophrasti
Procedure, shortened: as §1

pigweed = assay: Test B pre/postemergence pigweed; type: in vivo, Amaranthus retroflexus
Procedure, shortened: as §1

smallflower flatsedge = assay: Test B flood test smallflower flatsedge; type: in vivo, Cyperus difformis
Procedure, shortened: as §2

morningglory = assay: Test B pre/postemergence morningglory; type: in vivo, Ipomoea hederacea
Procedure, shortened: as §1

blackgrass = assay: Test B pre/postemergence blackgrass; type: in vivo, Alopecurus myosuroides
Procedure, shortened: as §1

surinam grass = assay: Test B pre/postemergence surinam grass; type: in vivo, Brachiaria decumbens
Procedure, shortened: as §1

purple nutsedge = assay: Test B pre/postemergence purple nutsedge; type: in vivo, Cyperus rotundus
Procedure, shortened: as §1

bamyardgrass = assay: Test B flood test barnyardgrass; type: in vivo, Echinochloa crus-galli
Procedure, shortened: as §2

rape = assay: Test B pre/postemergence rape; type: in vivo, Brassica napus
Procedure, shortened: as §1

soybean = assay: Test B pre/postemergence soybean; type: in vivo, Glycine max
Procedure, shortened: as §1

cocklebur = assay: Test B pre/postemergence cocklebur; type: in vivo, Xanthium strumarium
Procedure, shortened: as §1

[1] = Postemergence, Rate 62 g/ha, scale 0 to 10, 0 is no effect, 10 is complete control
[2] = Postemergence, Rate 250 g/ha, scale of 0 to 10, 0 is no effect, 10 is complete control
[3] = Postemergence, Rate 500 g/ha, scale of 0 to 10 where 0 is no effect and 10 is complete control
[4] = Preemergence, Rate 62 g/ha, scale 0 to 10 (0 no effect, 10 complete control)
[5] = Preemergence, Rate 125 g/ha, scale of 0 to 10 where 0 is no effect and 10 is complete control
[6] = Preemergence, Rate 250 g/ha, scale 0 to 10 (0 no effect, 10 complete control)
[7] = Preemergence, Rate 500 g/ha, scale of 0 to 10 where 0 is no effect and 10 is complete control
[8] = Rate 62 g/ha, flood test species, Pre-emergence, visual evaluation after twelve to sixteen days
[9] = Rate 125 g/ha, under heading Pre-emergence, flood test species, visual evaluation after twelve to sixteen days
[10] = Rate 250 g/ha, Pre-emergence (flood test species), scale 0 to 10, 0 is no effect, 10 is complete control
[11] = Rate 500 g/ha, Pre-emergence section of Table B, 0 to 10 scale (0 no effect, 10 complete control)

CC(=O)NCn1c(=O)on(C(=O)N(c2ccc(F)cc2F)C(C)C)c1=O [Compound 622]
2: Sugarbeets plant response rating (sugar beet; [2]) | Plant response rating, Bedstraw (bedstraw; [7]) | Plant response rating, Crabgrass (crabgrass; [1]) | Morningglory plant response rating (morningglory; [2]) | Plant response rating, Morningglory (morningglory; [3]) | Blackgrass plant response rating (blackgrass; [5]) | Plant response rating, Cocklebur (cocklebur; [3])
10: Plant response rating, Redroot pigweed (pigweed; [6]) | Plant response rating, Redroot pigweed (pigweed; [7])
8: Plant response rating, Crabgrass (crabgrass; [7])
1: Blackgrass plant response rating (blackgrass; [4])
4: Giant foxtail plant response rating (giant foxtail; [4]) | Plant response rating, Velvetleaf (velvetleaf; [7]) | Redroot pigweed plant response rating (pigweed; [4]) | Plant response rating, B. signalgrass (surinam grass; [7]) | Plant response rating, Soybean (soybean; [1])
9: Plant response rating, Giant foxtail (giant foxtail; [6]) | Plant response rating, Giant foxtail (giant foxtail; [7])
3: Plant response rating, Sugarbeets (sugar beet; [7]) | Plant response rating, Wild oats (wild oat; [7]) | Plant response rating, Blackgrass (blackgrass; [6]) | Plant response rating, Nutsedge (purple nutsedge; [7])
0: Plant response rating, Corn (corn; [1]) | Corn plant response rating (corn; [2]) | Plant response rating, Corn (corn; [3]) | Corn plant response rating (corn; [4]) | Corn plant response rating (corn; [5]) | Plant response rating, Corn (corn; [6]) | Plant response rating, Corn (corn; [7]) | Plant response rating, Sugarbeets (sugar beet; [1]) | Sugarbeets plant response rating (sugar beet; [4]) | Sugarbeets plant response rating (sugar beet; [5]) | Plant response rating, Sugarbeets (sugar beet; [6]) | Plant response rating, Ducksalad (0 to 10 scale, 0 is no effect, 10 is complete control) (duck salad; [8]) | Ducksalad plant response rating (0 to 10 scale, 0 is no effect, 10 is complete control) (duck salad; [9]) | Ducksalad plant response rating (duck salad; [10]) | Ducksalad plant response rating (duck salad; [11]) | Plant response rating, Wild oats (wild oat; [1]) | Wild oats plant response rating (wild oat; [2]) | Wild oats plant response rating (wild oat; [4]) | Wild oats plant response rating (wild oat; [5]) | Plant response rating, Wild oats (wild oat; [6]) | Plant response rating, Rice (0 to 10 scale, 0 is no effect, 10 is complete control) (rice; [8]) | Rice plant response rating (0 to 10 scale, 0 is no effect, 10 is complete control) (rice; [9]) | Rice plant response rating (rice; [10]) | Rice plant response rating (rice; [11]) | Plant response rating, Bedstraw (bedstraw; [1]) | Bedstraw plant response rating (bedstraw; [4]) | Bedstraw plant response rating (bedstraw; [5]) | Plant response rating, Wheat (wheat; [1]) | Wheat plant response rating (wheat; [2]) | Wheat plant response rating (wheat; [4]) | Wheat plant response rating (wheat; [5]) | Plant response rating, Wheat (wheat; [6]) | Plant response rating, Wheat (wheat; [7]) | Plant response rating, Giant foxtail (giant foxtail; [1]) | Plant response rating, Velvetleaf (velvetleaf; [1]) | Velvetleaf plant response rating (velvetleaf; [2]) | Velvetleaf plant response rating (velvetleaf; [4]) | Velvetleaf plant response rating (velvetleaf; [5]) | Plant response rating, Velvetleaf (velvetleaf; [6]) | Plant response rating, Redroot pigweed (pigweed; [1]) | Redroot pigweed plant response rating (pigweed; [2]) | Plant response rating, S. Flatsedge (0 to 10 scale, 0 is no effect, 10 is complete control) (smallflower flatsedge; [8]) | S. Flatsedge plant response rating (0 to 10 scale, 0 is no effect, 10 is complete control) (smallflower flatsedge; [9]) | S. Flatsedge plant response rating (smallflower flatsedge; [10]) | S. Flatsedge plant response rating (smallflower flatsedge; [11]) | Plant response rating, Morningglory (morningglory; [1]) | Morningglory plant response rating (morningglory; [4]) | Morningglory plant response rating (morningglory; [5]) | Plant response rating, Morningglory (morningglory; [6]) | Plant response rating, Morningglory (morningglory; [7]) | Plant response rating, Blackgrass (blackgrass; [1]) | Blackgrass plant response rating (blackgrass; [2]) | Plant response rating, Blackgrass (blackgrass; [3]) | Plant response rating, B. signalgrass (surinam grass; [1]) | B. signalgrass plant response rating (surinam grass; [2]) | Plant response rating, B. signalgrass (surinam grass; [3]) | B. signalgrass plant response rating (surinam grass; [4]) | B. signalgrass plant response rating (surinam grass; [5]) | Plant response rating, B. signalgrass (surinam grass; [6]) | Plant response rating, Nutsedge (purple nutsedge; [1]) | Nutsedge plant response rating (purple nutsedge; [2]) | Plant response rating, Nutsedge (purple nutsedge; [3]) | Nutsedge plant response rating (purple nutsedge; [4]) | Nutsedge plant response rating (purple nutsedge; [5]) | Plant response rating, Nutsedge (purple nutsedge; [6]) | Plant response rating, Barnyardgrass (0 to 10 scale, 0 is no effect, 10 is complete control) (bamyardgrass; [8]) | Barnyardgrass plant response rating (0 to 10 scale, 0 is no effect, 10 is complete control) (bamyardgrass; [9]) | Barnyardgrass plant response rating (bamyardgrass; [10]) | Barnyardgrass plant response rating (bamyardgrass; [11]) | Plant response rating, Rape (rape; [1]) | Rape plant response rating (rape; [2]) | Plant response rating, Rape (rape; [3]) | Rape plant response rating (rape; [4]) | Rape plant response rating (rape; [5]) | Plant response rating, Rape (rape; [6]) | Plant response rating, Rape (rape; [7]) | Soybean plant response rating (soybean; [4]) | Soybean plant response rating (soybean; [5]) | Plant response rating, Soybean (soybean; [6]) | Plant response rating, Soybean (soybean; [7]) | Plant response rating, Cocklebur (cocklebur; [1]) | Cocklebur plant response rating (cocklebur; [2]) | Cocklebur plant response rating (cocklebur; [4]) | Cocklebur plant response rating (cocklebur; [5]) | Plant response rating, Cocklebur (cocklebur; [6])
5: Plant response rating, Crabgrass (crabgrass; [3])
7: Plant response rating, Giant foxtail (giant foxtail; [3]) | Plant response rating, Crabgrass (crabgrass; [6]) | Redroot pigweed plant response rating (pigweed; [5])
6: Giant foxtail plant response rating (giant foxtail; [2]) | Crabgrass plant response rating (crabgrass; [4]) | Crabgrass plant response rating (crabgrass; [5]) | Plant response rating, Blackgrass (blackgrass; [7]) | Soybean plant response rating (soybean; [2])

From patent publication US6737383B1, “Herbicidal oxadiazolidines” (priority 1999, dated 2004)
